Test results reported in PubChem BioAssay AID179 (DTP/NCI, 2004).
Several values for one entry are separate records, joined by “and”; a condition that tells them apart may be missing. Equal entries are not always repeated. Activity calls are given as the source filed them.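 The calls were made as follows: active = compounds giving half or more protection of infected cells from virus-caused growth loss, again on retest; inactive = the rest.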 Where a SMILES comes first, the peptide text is derived from it.

System: CEM cells HIV-1 protection, formazan growth assay
Test: NCI AIDS Antiviral Assay
Conditions: for IC50: measured here: growth of uninfected CEM cells
Outline: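 Five concentrations of each compound were applied to infected and uninfected human CEM cells. Protection from HIV-1 was judged from growth measured with a soluble formazan assay.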

| SMILES | EC50 | IC50 | outcome |
| --- | --- | --- | --- |
| CCC[n+]1noc(N)n1 | > 1510 µM | > 1510 µM | – |
| NC1=NN(c2ccccc2)C(=O)C1C(=O)C(=O)NC1C2CC3CC(C2)CC1C3 (centres undefined) | > 13.8 µM | > 13.8 µM | – |
| CC1(Cl)CCC2(CC(Br)=CC3OC32C)CC1Br (centres undefined) | – | – | inactive |
| c1ccc(CN2C3C4N(Cc5ccccc5)C2C2N(Cc5ccccc5)C(C(N2Cc2ccccc2)N4Cc2ccccc2)N3Cc2ccccc2)cc1 | > 100 µM | > 100 µM | – |
| O=C(O)C1C2CCC(O2)C1C(=O)O (centres undefined) | > 1350 µM | > 1350 µM | – |
| c1ccc(-c2cc(-c3cc(-c4ccccc4)n(-c4ccccc4)n3)nn2-c2ccccc2)cc1 | > 100 µM | > 100 µM | – |
| CC(=O)N(c1ccccc1)[Si](C)(C)C | – | – | inactive |
| CCN(CCCN(CC)C(=O)Nc1c(C)cccc1C)C(=O)Nc1c(C)cccc1C | > 200 µM | > 200 µM | – |
| COC(=O)c1cc(C#N)[nH]c1-c1ccsc1 | > 200 µM | 30.9 µM | – |
| NC(=O)NC(=O)c1cccs1 | > 200 µM | > 200 µM | – |
| Nc1ccccc1[S][Sn]([c]1ccccc1)([c]1ccccc1)[c]1ccccc1 | > 2 µM | 0.324 µM | – |
| Cc1cccc(/C=N/NC(=S)Nc2ccccc2)n1 | > 200 µM | 2 µM | – |
| O=[N+]([O-])c1ccc(N2N=NC3C4CCC(C4)C32)cc1 (centres undefined) | > 95.5 µM | 43.7 µM | – |
| CC12CC(c3ccccc3N1)C1CC2(C)Nc2ccccc21 | > 64.6 µM | > 64.6 µM | – |
| CCOc1ccccc1NC(=O)CSc1nnc(Cc2ccccc2)o1 | > 182 µM | 10 µM | – |
| CC1NC(=O)C2=C1C(=O)NC(=O)C2 (centres undefined) | 40.7 µM | 195 µM | – |
| CC(=O)OCCn1cnc2nc(Nc3ccccc3)nc(Cl)c21 | > 200 µM | 70.8 µM | – |
| O=[N+]([O-])c1cccc(N=Cc2ccc(O)cc2)c1 | > 200 µM | 182 µM | – |
| CC(C)(O)CCC(O)[C@](C)(O)C1CCC2(O)C3=CC(=O)[C@@H]4C[C@@H](O)[C@@H](O)C[C@]4(C)C3CC[C@]12C (some centres undefined) | – | – | inactive |
| N[C@@H]1c2c(Br)sc(N3CCOCC3)c2C(=O)[C@@H]1O | > 200 µM | 105 µM | – |
| COc1ccc2nc3ccccc3c(NCCN(C)CCCl)c2c1 | > 20 µM | 1.32 µM | – |
| C/C(=N\NC(=S)NCCCCNC(=S)N/N=C(\C)c1ccccn1)c1ccccc1 | > 200 µM | 1.62 µM | – |

| SMILES | EC50 | IC50 | outcome |
| --- | --- | --- | --- |
| C/C=C/C(CC(O)(C(F)(F)F)C(F)(F)F)=N/NC(N)=S | > 200 µM | > 200 µM | – |
| COc1ccccc1N1C(=O)/C(=C\c2cc(OC)c(OC)c(OC)c2)S(=O)(=O)C1c1ccccc1 (centres undefined) | > 200 µM | 38 µM | – |
| C/C(=N\NC(N)=O)c1cc2cc([N+](=O)[O-])ccc2oc1=O | > 70.8 µM | > 70.8 µM | – |
| Cn1c(=O)c2c([nH]c(=O)n2C)n(C)c1=O | > 200 µM | > 200 µM | – |
| COc1ccc(C2(O)c3ccccc3C(=O)N(C)C2(O)c2ccc(OC)cc2)cc1 (centres undefined) | > 200 µM | 37.2 µM | – |
| Cc1ccccc1C(=O)c1ccccc1C(=O)O | 200 µM | 617 µM | – |
| Cc1cc2c(=O)cc(-c3ccc(C(=O)O)cc3)oc2c(C(N)=O)c1C | – | – | inactive |
| O=C1c2cc3c(cc2CC12Cc1cc4c(cc1C2=O)CCCC4)CCCC3 | > 200 µM | > 200 µM | – |
| Cn1c(=O)nc2n(-c3ccc(Cl)cc3)c3ccc(Cl)cc3nc-2c1=O | – | – | inactive |
| CS(=O)(=O)Nc1c(-c2ccccc2)oc2ccccc2c1=O | > 200 µM | > 200 µM | – |
| C/C(N=NC(=S)N1CCCCCC1)=C1\C=CC=CN1O | > 123 µM | 2.14 µM | – |
| ClCCC[Si]12OCCN(CCO1)CCO2 | – | – | inactive |
| O=C(N(O)c1ccccc1Cl)C(O)(c1ccccc1)c1ccccc1 | > 20 µM | > 20 µM | – |
| CCC(Cc1ccccc1)C1=NC(C)(C)CC(C)O1 (centres undefined) | > 200 µM | 79.4 µM | – |
| CSCCCNC(=O)c1csc(-c2csc(CCNC(=O)CNC(=O)CNC(=O)CNC(=O)OC(C)(C)C)n2)n1 | > 407 µM | > 407 µM | – |
| CC(C)(C)OC(=O)NC(Cc1ccccc1)C(=S)N1CCCC1 (centres undefined) | 56.2 µM | 141 µM | – |
| CCCCCCCCCCCCSS(=O)(=O)c1ccccc1 | > 75.9 µM | > 75.9 µM | – |
| COP1(=S)OCC2CCC[C@@H]2O1 (some centres undefined) | – | – | inactive |
| c1cc[c]([Sn]([O]c2cccc3cccnc23)([O]c2cccc3cccnc23)[c]2ccccc2)cc1 | – | – | inactive |
| CCCCCCC1CC(=O)C1(Cl)Cl (centres undefined) | – | – | inactive |
| CCc1c(-c2ccc(OC)cc2)oc(OC)c(C)c1=O | > 200 µM | 40.7 µM | – |
| O=C1C(c2ccccc2)C2C=CC(C2)N1O (centres undefined) | > 200 µM | > 200 µM | – |

| SMILES | EC50 | IC50 | outcome |
| --- | --- | --- | --- |
| CCOC(=O)CNC(SC)=C(C#N)C#N | – | – | inactive |
| CC(=O)OCC1OC(Sc2nc(-c3ccc(C)cc3)c(C#N)c(=O)n2C2OC(COC(C)=O)C(OC(C)=O)C(OC(C)=O)C2OC(C)=O)C(OC(C)=O)C(OC(C)=O)C1OC(C)=O (centres undefined) | > 100 µM and 69.2 µM | > 100 µM | – |
| c1ccc(N=C2SC3=NCCN3C2=Nc2ccccc2)cc1 | > 200 µM | 8.32 µM | – |
| CCc1cccc(C(C)C)c1NC(=O)C(=O)C(c1ccccc1)S(=O)(=O)Cc1ccccc1 (centres undefined) | > 200 µM | > 200 µM | – |
| S=C(NCCCCCCNC(=S)Nc1c2ccccc2nc2ccccc12)Nc1c2ccccc2nc2ccccc12 | – | – | inactive |
| C/C(=N/O)c1ccc2c(c1)C(=NO)c1cc(/C(C)=N/O)ccc1-2 | > 83.2 µM | 11.5 µM | – |
| CC1CN(Cc2ccccc2)C(=N)S1 (centres undefined) | > 363 µM | 288 µM | – |
| Cc1c2c(cc3c1C(=O)C(=O)C1=C3OCC1C)C(C)(C)CCC2 (centres undefined) | – | – | inactive |
| Cc1ccc2[nH]c3[nH]c(=S)[nH]c(=O)c3c2c1 | 22.4 µM | 162 µM | – |
| O=C(NC(CSC(c1ccccc1)c1ccccc1)C(=O)Oc1ccc([N+](=O)[O-])cc1)OCc1ccccc1 (centres undefined) | > 200 µM | 85.1 µM | – |
| COc1ccc2nc3cc(Cl)ccc3c(SCC(=O)Nc3ccccc3-c3ccccc3NC(=O)CSc3c4ccc(Cl)cc4nc4ccc(OC)cc34)c2c1 | > 8.91 µM | > 8.91 µM | – |
| CCC(C)C(NC(=O)C(CCCN=C(N)N)NC(=O)C(CC(N)=O)NC(=O)C(Cc1cnc[nH]1)NC(=O)C(N)CC(C)C)C(=O)NC(C(=O)NC(CC(C)C)C(=O)NCC(=O)NC(CC(N)=O)C(=O)O)C(C)CC (centres undefined) (H-LHNRIILGN-OH; configuration not given here) | > 47.9 µM | > 47.9 µM | – |
| Cc1c(N=Nc2ccc(N(C)C)cc2)cc[n+]([O-])c1C | > 200 µM | > 200 µM | – |
| COP1(=O)Oc2ccccc2C(=O)C(C(F)(F)F)(C(F)(F)F)O1 (centres undefined) | > 692 µM | 295 µM | – |
| S=c1[nH]c2ccc(Br)cc2c(=S)n1-c1ccccc1 | > 195 µM | 56.2 µM | – |
| CC(C)CC(NC(=O)C(NC(=O)C(CO)NC(=O)C(C)NC(=O)C(CCCN=C(N)N)NC(=O)C(C)NC(=O)CN)C(C)C)C(=O)NC(CO)C(N)=O (centres undefined) (H-GARASVLS-NH2; configuration not given here) | – | – | inactive |
| Clc1ccc2c(c1)-c1c3c(nn1-c1ccccc1)-c1ccccc1SC3O2 (centres undefined) | > 13.5 µM | > 13.5 µM | – |
| Nc1ncnc2c1ncn2CC(=O)NCCCCO | > 200 µM | > 200 µM | – |
| COC(=O)C(C)(C)N=CN(C)C | > 1450 µM | > 1450 µM | – |
| CC12CCC([C@H](C(O)C3CCCCC3)C1=O)C2(C)C (some centres undefined) | > 200 µM | 52.5 µM | – |
| CC1=NS(=O)(=O)NC(C)(C)C1 | > 200 µM | > 200 µM | – |
| CCCCCCC(O)CCCC(O)C1CCC(C2CCC(C(O)CCCCCCCCCCCCC3=CC(C)OC3=O)O2)O1 (centres undefined) | – | – | inactive |

| SMILES | EC50 | IC50 | outcome |
| --- | --- | --- | --- |
| CC(C)(CCC(C)(C)N1OC1c1ccccc1)N1OC1c1ccccc1 (centres undefined) | > 200 µM | 19.1 µM | – |
| C=C1C(=O)O[C@H]2C1C[C@@H](OC(C)=O)/C(C)=C/CC[C@@]1(C)O[C@H]21 (some centres undefined) | > 200 µM | 1.2 µM | – |
| CCN(C(=O)c1ccccc1C)C(c1ccccc1)P(=O)(c1ccccc1)c1ccccc1 (centres undefined) | – | – | inactive |
| COCCN1C(=O)C2c3[nH]c4ccccc4c3C3CCC(C(C)(C)C)CC3C2C1=O (centres undefined) | > 200 µM | 39.8 µM | – |
| Nc1nc(Cl)nc2c1ncn2C1CC(O)C(CO)O1 (centres undefined) | > 631 µM | 3.09 µM | – |
| CN(C)c1ccc(C(=CC=C2C(=O)NC(=O)NC2=O)c2ccc(N(C)C)cc2)cc1 | > 4.9 µM | > 4.9 µM | – |
| O=C(Nc1ncnc2c1ncn2C1CC(OC(=O)c2ccc([N+](=O)[O-])cc2)C(COC(=O)c2ccc([N+](=O)[O-])cc2)O1)c1ccccc1 (centres undefined) | – | – | inactive |
| CC(C)c1cccc(C(C)C)c1NC1=CC(=O)C(=O)c2ccccc21 | > 30.2 µM | > 30.2 µM | – |
| Cn1c2c(c(=O)n(C)c1=O)CS(=O)c1ccccc1N2 (centres undefined) | > 309 µM | 234 µM | – |
| COC(=O)[C@@H](COC(=O)/C=C/c1ccc(OC(C)=O)c(OC(C)=O)c1)NC(=O)/C=C/c1ccc(OC(C)=O)c(OC(C)=O)c1 | > 100 µM | 19.1 µM | – |
| O=c1ccn([C@@H]2C[C@@H]2CO)c(=O)[nH]1 | – | – | inactive |
| O=C(O)c1ccc(CS(=O)(=O)c2ccc([N+](=O)[O-])cc2)c([N+](=O)[O-])c1 | > 676 µM | 324 µM | – |
| Cn1c2c(c3ccccc31)CCN(CCCCN1CCN(c3ccccc3)CC1)C2=O | > 30.9 µM | > 30.9 µM | – |
| O=C(NN1C(=O)C(Cl)C1c1cccc([N+](=O)[O-])c1)c1ccccc1O (centres undefined) | > 27.5 µM | > 27.5 µM | – |
| CCCCCCCCCCCCCCCCOC(=O)c1cc(OCCOP(=O)(O)O)cc(C(=O)OCCCCCCCCCCCCCCCC)c1 | – | – | inactive |
| OC1(CN2CCOCC2)N=C(c2ccccc2)c2ccsc2-n2cccc21 (centres undefined) | > 200 µM | > 200 µM | – |
| O=C(/C=C/c1ccccc1)CCC1C(=O)NC(=O)NC1=O | > 66.1 µM | > 66.1 µM | – |
| c1ccc2c(c1)[nH]c1nc3cc(-c4ccc5nc6c(nc5c4)[nH]c4ccccc46)ccc3nc12 | > 200 µM | 110 µM | – |
| CN1C(=O)CN2C(Cl)(Cl)C2(c2ccccc2F)c2cc([N+](=O)[O-])ccc21 (centres undefined) | > 200 µM | 141 µM | – |
| O=[N+]([O-])c1cc([N+](=O)[O-])c2no[n+]([O-])c2c1Nc1ccccc1 | > 56.2 µM | > 56.2 µM | – |
